Reference: a melting point compilation (Tetko et al.; mined from patent text by program, amines drawn as free bases though some values may be those of a salt)

Row | SMILES | melting point
1 | CC1(C)C(C)(C)C1(Cl)c1ccccn1 | 100 to 102 °C
2 | COc1cn(-c2cccc(C3=CCOCC3)c2F)nc(-c2ccnn2-c2ccccc2)c1=O | 138 to 141 °C
3 | Cc1c(C(=O)N(C)Cc2ccc3c(Br)c(OCc4nnn[nH]4)ccc3c2)oc2ccccc12 | 164 to 166 °C
4 | COc1cc(OC)c(C2=CCN(C)CC2)c(O)c1C(C)=O | 143 to 144 °C
5 | CN(CCOc1ccc(Cn2cc(CCC(=O)O)c(-c3ccccc3)n2)cc1)c1ccccn1 | 110 to 111 °C
6 | CC(=O)N1CCOc2ccc(C3=NNC(=O)CC3C)cc21 (stereo unspecified) | 186 °C
7 | N#Cc1c2n(c3ccccc13)CCNCC2 | 161 to 164 °C
8 | N#CC(=C1CSc2ccccc2N1)c1ccc(Cl)cc1 | 137 to 139 °C
9 | Nc1ccc(C=CC=CC=CC=Cc2ccc(N)cc2)cc1 | 262 to 264 °C
10 | Cc1cc2c(cc1-c1ccc(C=CC(=O)O)s1)C(C)(C)CCC2(C)C | 175 to 177 °C
11 | Cc1ccc(S(=O)(=O)NC(=O)NCCC(F)=C(F)F)cc1 | 134 to 136 °C
12 | O=C(NCc1cccc(-c2ccc(CS(=O)(=O)Cc3n[nH]c(=O)[nH]3)cc2)c1)c1nc2ccccc2c(=O)[nH]1 | 245 to 247 °C
13 | Nc1nc(N)c2c(ccc3c2c2c(n3Cc3ccccc3)CCCC2)n1 | 224 to 226 °C
14 | Nc1ccc(-n2c(-c3ccccc3)cc3c2CCCC3)cc1C(=O)O | 206 °C
15 | CC1=NN(c2ccc(C(=O)O)cc2)C(=O)C1Cc1ccc(-c2cc(C)c(C)cc2[N+](=O)[O-])o1 (stereo unspecified) | 160 to 163 °C
16 | Nc1[nH]c(=O)[nH]c(=O)c1N | 144 to 146 °C
17 | O=CC1(Br)C2CCC(CC2)C1c1ccccc1 (stereo unspecified) | 65 to 66 °C
18 | CC(=O)Nc1nc(N2CCc3ccccc3CC2)c([N+](=O)[O-])c(=O)[nH]1 | > 200 °C
19 | CCCCCCN(C(=O)Nc1ccc(C(=O)O)cc1)c1ccc2c(c1)C(C)(C)CCC2(C)C | 177 °C
20 | O=C(OCc1ccccc1)N1CCc2ccccc2C12CCC(C(=O)O)(C(=O)O)CC2 | 199 to 200 °C

Row | SMILES | melting point
21 | OC1CCN(c2nc(-c3ccccc3)nc3ccccc23)CC1 | 165 to 167 °C
22 | NS(=O)(=O)c1ccc(-c2noc(-c3cnn4c(C5CC5)cc(-c5ccc(C(F)(F)F)cc5)nc34)n2)s1 | 290 °C
23 | N#Cc1ccc(CN2CCC(=O)C(C(c3ccc(F)cc3)c3ccc(F)cc3)C2)cc1 (stereo unspecified) | 118 to 120 °C
24 | COC(=O)C[C@@H](CC(=O)C=Cc1c(-c2ccc(F)cc2)c(-c2ccccc2)c(C(=O)Nc2ccccc2)n1C(C)C)O[Si](C)(C)C(C)(C)C | 62 to 64 °C
25 | CC(C)(O)C#Cc1nccs1 | 69 to 70 °C
26 | CC(C)(C)OC(=O)[C@H]1N=CSC[C@]1(O)C(F)(F)F | 126 to 128 °C
27 | CCCCCCCC(=O)c1ccc(CCC(CCOC(C)=O)(CCOC(C)=O)NC(C)=O)cc1 | 83 to 86 °C
28 | Cc1cccnc1-c1ccc2ccnc(N)c2n1 | 170 to 171 °C
29 | COc1ccccc1COc1cc2c(cc1OC)C(=O)N(Cc1ccccc1OC)CC2 | 133 to 134 °C
30 | CC1=C(C(=O)OCCC#N)C(c2cccc([N+](=O)[O-])c2)C(C(=O)OCCCN2CCC(c3ccccc3)(c3ccccc3)CC2)=C(C)N1 (stereo unspecified) | 158 to 160 °C
31 | Cn1cc(C2=C(c3cn(CCC(N)=O)c4ccccc34)C(=O)NC2=O)c2ccccc21 | 243 to 247 °C
32 | c1ccc2c(c1)CCc1cccnc1C2C1CCNCC1 (stereo unspecified) | 111 to 114 °C
33 | CCCCCCCCCCCCCCCCOCC(CO)COC(C)=O (stereo unspecified) | 33 °C
34 | Cc1ccc(C(=O)C2=C(O)C(=O)N(c3ncc(S(=O)(=O)c4ccc([N+](=O)[O-])cc4)s3)C2c2cccnc2)cc1 (stereo unspecified) | 211 °C
35 | CCCCc1ccc(OC)c(-c2csc(NC(=O)c3ccc(C(=O)N4CCC(N5CCC(NC(=O)CC)C5)CC4)cc3)n2)c1 (stereo unspecified) | 128 °C
36 | Fc1ccccc1C1=CCc2nnc(Br)n2-c2ccc(Cl)cc21 | 222 °C
37 | O=C(c1ccc(Cl)cc1Cl)N1CCc2cc(S(=O)(=O)N3CCN(c4cccc(Cl)c4)CC3)ccc21 | 184 °C
38 | COC(=O)C1CCC2C3CCC4CC(=O)CCC4(C)C3C(NCCC(C)C)CC12C (stereo unspecified) | 86 to 89 °C
39 | Cc1cccc(NC(=O)NC2N=C(c3ccccc3)c3ccccc3N(C)C2=O)c1 (stereo unspecified) | 207 to 209 °C

Continued, values first:

Row | melting point | SMILES
40 | > 230 °C | Cc1c(O)c(=O)ccn1CC(=O)O
41 | 62 to 64 °C | CCOC(=O)Cc1ccc2c(c1)sc1c(Cl)cccc12
42 | 65 to 68 °C | COC(=O)c1ccc(NC(=O)C(CC2CCCC2)c2ccc(N)cc2)nc1 (stereo unspecified)
43 | 223 to 225 °C | O=C1NC(=O)C(c2ccc(Cl)c(Cl)c2)N1 (stereo unspecified)
44 | 59 to 61 °C | COc1ccc(C(=O)Nc2cccc(C3(C#N)CCCC3)c2)cc1OC
45 | 209 to 210 °C | CNC(=O)c1cccc(NC(=O)Nc2ccccc2)c1
46 | 85 to 86 °C | COC(=O)c1cscc1NC(=O)NCCCCBr
47 | 174 to 176 °C | CC(=O)N=C1C(OC(C)=O)=C(NC(C)=O)C2CC(=O)CC1C2NC(C)=O (stereo unspecified)
48 | 136 to 138 °C | CC(C)(C)c1cc(CCc2ccccc2NC(=O)N2CCCCCC2)cc(C(C)(C)C)c1O
49 | 99 to 101 °C | COc1ccc2[nH]c(C)c(Cc3cc(=O)n(C4CCCCC4)[nH]3)c2c1
50 | 219 °C | COc1ccccc1NC(=O)Nc1ncnc(Nc2ccccc2-c2ccccc2)n1
51 | 151 to 152 °C | COC(=O)c1c(OC)nc2ccc(Cl)cc2c1-c1ccccc1Cl
52 | 206 °C | COc1ccc(C2=C(c3ccc(C=CC(=O)O)cc3)c3ccc(OC)cc3CC2)cc1
53 | 65 °C | CNCc1ccc(C2=NCCN2C(=O)OC(C)(C)C)cc1
54 | 185 to 186 °C | N#Cc1[nH]c2ccc(Cl)cc2c1-c1ccccc1F
55 | 90 to 92 °C | CCOC(=O)CC(=O)c1c(F)c(F)c(N2CCC(NC(C)=O)C2)c(F)c1F (stereo unspecified)

Row | melting point | SMILES
56 | 219 to 220 °C | O=C(O)CNC(=O)CCc1cccc(-c2nc(=O)c3ccccc3s2)n1
57 | 198 to 200 °C | COc1cc(C(F)(F)F)nc2c(Cl)ccc(F)c12
58 | 175 to 177 °C | COC(=O)c1ccc(NC(=O)c2cc(C(C)C)c(C(C)C)o2)s1
59 | 179 to 180 °C | Cc1ccccc1C(=O)Nc1c(NC(=O)CCl)ccc2c1C(=O)c1ccccc1C2=O
60 | 138 to 140 °C | S=C1CSc2cccc(Cl)c2N1
61 | 269 to 271 °C | CCOc1ccc(-c2ccc3c(c2)C=C(C(=O)O)CCO3)cc1
62 | 200 to 202 °C | COC(=O)CN(CC(=O)OC)c1cc(O)cc(O)c1
63 | 82 to 84 °C | CC(=O)NC(=O)C(=O)C(C)(C)C
64 | 48 to 49 °C | COC(=O)c1sc(S)c(Cl)c1O
65 | 195 to 196 °C | COC(=O)c1cccc2c(-c3ccc(O)cc3)n(C(C)C)nc12
66 | 135 to 136 °C | CCOC(=O)C1=Cc2cc(C(F)F)ccc2OC1C(F)(F)F (stereo unspecified)
67 | 116 to 118 °C | COc1ccc(NCCSC#N)c([N+](=O)[O-])c1
68 | 155 to 157 °C | Nc1sc2c(c1C(=O)c1ccc(Cl)cc1)CCN(Cc1ccccc1)C2
69 | 76 to 77 °C | CCOC(=O)Cc1ccc([N+](=O)[O-])c(OCC(F)(F)F)c1
70 | 66 to 67 °C | Cc1ccccc1C(=O)c1ccccc1C
71 | 209 to 210 °C | O=S(=O)(Nc1cccc2cc(-c3ncc(CO)s3)[nH]c12)c1cccs1
